Test results reported in patent US7799776B2, “Indoleamine 2,3-dioxygenase (IDO) inhibitors” (The University of British Columbia, priority 2004, dated 2010).
Read-outs that look alike come from different tables or passages of the source.

How the values were obtained:
IDO = IDO (Oryctolagus cuniculus, UniProt G1SJI2); conditions: tryptophan (substrate) analogues; Sono and Cady 1989, Cady and Sono 1991; cited from earlier work
recombinant human IDO = recombinant human IDO (Homo sapiens, UniProt P14902); test: IDO inhibition kinetics (N-formylkynurenine formation, absorbance at 321 nm); assay type: biochemical; conditions: for manner of IDO inhibition: assay repeated using differing concentrations
Experimental: The following reaction (Sono, M., Cady, S. G. Biochemistry 28, 5392-5399 (1989)) was used to measure the kinetics of inhibition of IDO using compounds of this invention as well as other compounds for comparison, as listed in Table 4.
A solution of 0.1M potassium phosphate buffer (pH 6.5; optimal at 37° C.), 25 μM methylene blue, 200 μg/ml of catalase, 10 mM ascorbic acid, 50 nM of recombinant human IDO and 100 μM L-Tryptophan was prepared. The rate of product formation (Δε321=3.75 mM^−1 cm^−1 for N-formylkynurenine) was determined from the slope of the initial linear absorbance increase at 321 nm as a function of time.

purified, human IDO = purified, human IDO (Homo sapiens, UniProt P14902); test: In vitro IDO activity assay (kynurenine adduct detected at 480 nm) used for bioassay guided fractionation; assay type: biochemical; conditions: extracts and compounds identified by bioassay guided fractionation
Experimental: Various in vitro assays (see for example Takikawa, et al. J. Biol. Chem. 263, 2041-2048 (1988)) may be used to screen (e.g. high-throughput screening) or test reaction products or extracts obtained natural sources for IDO inhibition activity or to determine the kinetics of IDO inhibition. For example, IDO activity may be assayed by means of a reaction mixture (100 microlitre total volume) containing potassium phosphate buffer (50 mM, pH 6.5), ascorbic acid (20 mM), catalase (200 microgram/mL), methylene blue ([…]), L-tryptophan ([…]), and purified, human IDO. The reaction shown below may be allowed to proceed for 40 min (37° C.) and stopped by the addition of 20 microlitre of 30% (w/v) trichloroacetic acid. The N-formyl kynurenine formed from tryptophan in the reaction mixture during this time is then converted to kynurenine by incubating the reaction mixture at 65° C. for 15 minutes. After cooling the reaction mixture to room temperature, an equal volume of 2% (w/v) p-dimethylamino benzaldehyde in acetic acid may be added to convert the kynurenine present in the reaction mixture to a yellow adduct that can be detected at 480 nm. A standard curve for this latter reaction may be constructed with the use of standard solutions prepared from authentic L-kynurenine. Protein concentration may be determined by the Coomassie blue dye-binding method of Bradford with bovine serum albumin as a standard. (Takikawa et al, J. Biol. Chem. 263, 2041-2048).
Crude extracts from the marine hydroid Garveia annula collected in British Columbia and the sponge Xestospongia sp. collected in Papua New Guinea show activity in the aforementioned assay. […] Annulins A and B, garveatins A and C, and 2-hydroxygarvin A have been previously reported (Fahy et al J. Org. Chem., (1985), 50, 1149-50; J. Org. Chem., (1986), 51, 57-61; J. Org. Chem., (1986), 51, 5145-48; Can. J. Chem., (1987), 65, 376-83), but were not known to be IDO inhibitors. Annulin C, Garvalone C and garveatins E and F are novel. […] Xestoquinone, adociaquinone A, and adociaquinone B had been previously isolated from sponge extracts and their structures have been reported in the literature (Schmitz and Bloor J. Org. Chem. (1988), 53, 3922-3925), but were not known as IDO inhibitors.

[1] = 50 nM recombinant human IDO, 100 μM L-Tryptophan, pH 6.5, read-out: Ki

purified, human IDO, sequence (P14902 whole entry): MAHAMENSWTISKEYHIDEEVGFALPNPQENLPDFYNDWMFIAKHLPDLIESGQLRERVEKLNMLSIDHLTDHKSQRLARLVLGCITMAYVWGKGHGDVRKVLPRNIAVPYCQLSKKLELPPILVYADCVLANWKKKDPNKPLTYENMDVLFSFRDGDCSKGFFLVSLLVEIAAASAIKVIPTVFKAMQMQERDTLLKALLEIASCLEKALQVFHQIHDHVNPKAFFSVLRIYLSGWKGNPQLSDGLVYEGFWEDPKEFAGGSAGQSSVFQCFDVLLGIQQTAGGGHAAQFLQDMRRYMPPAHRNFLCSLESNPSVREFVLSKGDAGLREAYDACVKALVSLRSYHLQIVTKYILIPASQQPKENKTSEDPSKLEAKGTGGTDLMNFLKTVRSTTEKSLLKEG
recombinant human IDO, sequence (P14902 whole entry): as above
IDO, sequence (G1SJI2 1-402): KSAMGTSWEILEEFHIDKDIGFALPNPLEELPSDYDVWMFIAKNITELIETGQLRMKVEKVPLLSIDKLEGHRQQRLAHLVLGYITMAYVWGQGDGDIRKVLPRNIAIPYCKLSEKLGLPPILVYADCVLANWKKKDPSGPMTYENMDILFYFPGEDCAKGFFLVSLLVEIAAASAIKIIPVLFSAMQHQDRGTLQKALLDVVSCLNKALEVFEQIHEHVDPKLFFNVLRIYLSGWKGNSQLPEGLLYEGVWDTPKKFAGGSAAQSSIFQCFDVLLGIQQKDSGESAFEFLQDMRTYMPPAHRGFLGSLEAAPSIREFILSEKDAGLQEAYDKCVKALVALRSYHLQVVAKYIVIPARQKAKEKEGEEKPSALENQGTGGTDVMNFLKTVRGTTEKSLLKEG

| Compound | Ki (recombinant human IDO; [1]) [µM] | IDO inhibition activity (qualitative) (purified, human IDO) | further results |
| --- | --- | --- | --- |
| Cn1cc(C[C@H](N)C(=O)O)c2ccccc21 [1-methyl-L-tryptophan (1MT), 1-methyl-L-tryptophan] | – | – | manner of IDO inhibition (IDO): competitive inhibitors |
| CCCc1c(C(=O)OC)c(OC)cc2cc3c(c(O)c12)C(=O)C(C)(O)C(=O)C3(C)C (centres unmarked) [2-Hydroxygarvin A] | 2.3 | active IDO inhibitors | – |
| CC12CCCc3coc(c31)C(=O)c1cc3c(cc12)C(=O)C1=C(NCCS1(=O)=O)C3=O (centres unmarked) [Adociaquinone B] | 0.025 | active IDO inhibitors | – |
| COC(=O)c1c(C)cc2cc3c(c(O)c2c1OC)C(=O)C(C)(CC(C)=O)C(=O)C3(C)C (centres unmarked) [Garvalone C] | 1.25 | – | – |
| COc1c(C(C)=O)c(C)cc2cc3c(c(O)c12)C(=O)C(C)(C)C(=O)C3(C)C [Garveatin C] | 1.18 | active IDO inhibitors | – |
| CCC1=C(C)C(=O)c2cc3c(c(O)c2C1=O)C(=O)C(C)=C(O)C3(C)C [Garveatin E] | 3.1 | active IDO inhibitors | – |
| CCc1c(C)cc2c(c1O)C(=O)C1=C(C2=O)C(C)(C)C(=O)C(C)(C(=O)OC)O1 (centres unmarked) [Annulin B] | 0.123 | active IDO inhibitors | – |
| O=C1C=Cc2ccccc2C1=O [1,2 naphthoquinone, reference compound] | 3.4 | – | – |
| CC12CCCc3coc(c31)C(=O)c1cc3c(cc12)C(=O)C=CC3=O (centres unmarked) [Xestoquinone] | 0.181 | active IDO inhibitors | – |
| CCc1c(C)cc2c(c1O)C(=O)C1=C(C2=O)C(C)(C)OC1(OC)C(=O)OC (centres unmarked) [Annulin C] | 0.144 | active IDO inhibitors | manner of IDO inhibition (recombinant human IDO): non-competitive |
| O=c1ccc2ccccc2o1 [Coumarin, reference compound] | 1110 | – | – |
| O=C1C=C(O)C(=O)c2ccccc21 | 100 | – | – |
| CC1=CC(=O)c2ccccc2C1=O [Menadione (Vitamin K3), Menadione, reference compound] | 0.58 | shown to be an IDO inhibitor | manner of IDO inhibition (recombinant human IDO): non-competitive |
| O=C1C=CC(=O)c2c(O)cccc21 [Juglone, reference compound] | 0.048 | – | – |
| CC12CCCc3coc(c31)C(=O)c1cc3c(cc12)C(=O)C1=C(C3=O)S(=O)(=O)CCN1 (centres unmarked) [Adociaquinone A] | 0.086 | active IDO inhibitors | – |
| CC(=O)c1c(C)cc2cc3c(c(O)c2c1O)C(=O)C(C)=C(O)C3(C)C [Garveatin A] | 3.2 | active IDO inhibitors | – |
| Doxorubicin [reference compound] | 46000 | – | – |
| CCc1c(C)cc2c(c1O)C(=O)C1=C(C2=O)C(C)(C)OC1(O)C(=O)OC (centres unmarked) [Annulin A] | 0.694 | active IDO inhibitors | – |
| O=C1c2ccccc2C(=O)c2c1ccc(O)c2O [Alizarin, reference compound] | 42 | – | – |
| O=C1C(Cl)=C(Cl)C(=O)c2ccccc21 [Dichlone, reference compound] | – | – | Ki (recombinant human IDO): 0.045 µM |
| CCc1c(C)cc2cc3c(c(O)c2c1O)C(=O)C(C)(O)C(=O)C3(C)C (centres unmarked) [Garveatin F] | 1.42 | active IDO inhibitors | – |
| NC(Cc1coc2ccccc12)C(=O)O (racemic) [beta-(3-benzofuranyl)-DL-alanine] | – | – | manner of IDO inhibition (IDO): competitive inhibitors |
| CC(=O)CC(c1ccccc1)c1c(O)c2ccccc2oc1=O (centres unmarked) [Warfarin, reference compound] | > 32 | – | – |
| CC1=C(C/C=C(\C)CCC[C@H](C)CCC[C@H](C)CCCC(C)C)C(=O)c2ccccc2C1=O [Vitamin K1, reference compound] | > 40 | – | – |
| CC1Cc2c(c(O)cc3cc4c(c(O)c23)OC(C)(C)C4(C)C)C(=O)O1 (centres unmarked) [Garvin C] | ~2100 | – | – |
| COC1=CC(=O)c2ccccc2C1=O | 0.53 | – | – |
| Oc1ccc(O)cc1 [Dihydroquinone, reference compound] | > 5000 | – | – |
